The values below come from ChEMBL document CHEMBL3045163, “Synthesis of benzothiazole derivatives having acetamido and carbothioamido pharmacophore as anticonvulsant agents” (Med Chem Res, 2012).

Molecules are shown by their SMILES. Active and inactive are the calls of the source. The rule behind the calls is not given here.

In data set [1] the test system is Mus musculus. The experiment in a line: Antidepressant activity in Mus musculus (mouse) assessed as immobility time at 100 mg/kg, ip administered 60 min before test measured during last 4 min of 6 min testing period. The conditions noted are these: route intraperitoneal. The class given is functional.
A short description of data set [2]: Octanol-phosphate buffer partition coefficient, log P of the compound. The data set is classed as physicochemical.
Data set [3] relates to Mus musculus. The experiment in a line: Neurotoxicity in Mus musculus (mouse) assessed as motor impairment at 300 mg/kg, ip after 0.5 hr by rotorod test. The conditions noted are these: in vivo. On the set-up: dose 300 mg/kg, route intraperitoneal. The data set is classed as toxicity, organism-based. Background: Falling from the rotarod earlier than controls is read as motor impairment.

In data set [4] the test system is Mus musculus. The experiment in a line: Neurotoxicity in ip dosed Mus musculus (mouse) assessed as motor impairment after 4 hr by rotorod test. The class given is toxicity, organism-based. Conditions: in vivo.
Data set [5] relates to Mus musculus. Put plainly: Anticonvulsant activity in Mus musculus (mouse) assessed as protection against subcutaneous pentylenetetrazole-induced seizure at 300 mg/kg, ip after 4 hr. The class given is functional, organism-based. Also noted: dose 300 mg/kg.
For data set [6], the system named is Mus musculus. The experiment in a line: Anticonvulsant activity in Mus musculus (mouse) assessed as protection against subcutaneous pentylenetetrazole-induced seizure at 300 mg/kg, ip after 0.5 hr. The data set is classed as functional, organism-based. Also noted: dose 300 mg/kg.
For data set [7], the system named is Mus musculus. Put plainly: Anticonvulsant activity in Mus musculus (mouse) assessed as protection against maximal electroshock-induced seizure at 300 mg/kg, ip after 4 hr. The data set is classed as functional, organism-based. On the set-up: dose 300 mg/kg. (In general: Protection in the maximal electroshock model is a classic sign of anticonvulsant action.)

Data set [8] has as its system Mus musculus. Put plainly: Anticonvulsant activity in ip dosed Mus musculus (mouse) assessed as protection against maximal electroshock-induced seizure after 0.5 hr. The data set is classed as functional. Conditions: read-out: MED.
For data set [9], the system named is Mus musculus. The experiment in a line: Neurotoxicity in ip dosed Mus musculus (mouse) assessed as motor impairment after 0.5 hr by rotorod test. The data set is classed as toxicity, organism-based. The conditions noted are these: in vivo.
The subject of data set [10] is Mus musculus. Put plainly: Anticonvulsant activity in ip dosed Mus musculus (mouse) assessed as protection against subcutaneous pentylenetetrazole-induced seizure after 4 hr. The conditions noted are these: read-out: MED. The data set is classed as functional.
In data set [11] the test system is Mus musculus. Put plainly: Anticonvulsant activity in ip dosed Mus musculus (mouse) assessed as protection against maximal electroshock-induced seizure after 4 hr. The conditions noted are these: read-out: MED. The data set is classed as functional.
In data set [12] the test system is Mus musculus. Put plainly: Anticonvulsant activity in ip dosed Mus musculus (mouse) assessed as protection against subcutaneous pentylenetetrazole-induced seizure after 0.5 hr. The data set is classed as functional. The conditions noted are these: read-out: MED.
Data set [13] deals with Mus musculus. Put plainly: Neurotoxicity in Mus musculus (mouse) assessed as motor impairment at 300 mg/kg, ip after 4 hr by rotorod test. The data set is classed as toxicity, organism-based. Also noted: dose 300 mg/kg, route intraperitoneal. The conditions noted are these: in vivo.
Data set [14] deals with Mus musculus. The experiment in a line: Anticonvulsant activity in Mus musculus (mouse) assessed as protection against maximal electroshock-induced seizure at 300 mg/kg, ip after 0.5 hr. On the set-up: dose 300 mg/kg. The class given is functional, organism-based.

With `S=C(N/N=C/c1ccccc1Cl)Nc1nc2ccc(Cl)cc2s1`, the Time in the data set on Mus musculus [1] came to 177 s. This molecule had a logP in [2] of 5.46. For the same molecule, in the data set with Mus musculus [3], the Activity entry is given as “Non-toxic”. The MED with Mus musculus [4] came to 100 mg/kg. Moreover, the result with Mus musculus [5], in the data set with Mus musculus [6] and in the data set on Mus musculus [7] was inactive. Further, in the data set with Mus musculus [8], the minimal effective dose was determined as 300 mg/kg.
Regarding `O=C(Cn1ccc2ccccc21)Nc1nc2ccc(Cl)cc2s1`, the Time with Mus musculus [1] was found to be 152 s. Moreover, in [2], the logP worked out at 4.62. Besides, the MED in the data set with Mus musculus [4] was 300 mg/kg; in the data set with Mus musculus [9], 100 mg/kg. In addition, in the data set with Mus musculus [6], the outcome was inactive. The values for the minimal effective dose in the data set on Mus musculus [10], in the data set with Mus musculus [11] and with Mus musculus [8] were 300 mg/kg, 300 mg/kg and 100 mg/kg, respectively.
For `O=C1NC(=O)C(c2ccccc2)(c2ccccc2)N1` [PHENYTOIN], the MED with Mus musculus [4] and in the data set with Mus musculus [9] was 100 mg/kg each time. Further, the outcome in the data set on Mus musculus [5] and with Mus musculus [6] was inactive. For the same molecule, the minimal effective dose in the data set on Mus musculus [11] and in the data set with Mus musculus [8] was 30 mg/kg throughout.
Take `Oc1ccc(/C=N/NC(=S)Nc2nc3ccc(Cl)cc3s2)cc1`: the Time in the data set with Mus musculus [1] came to 169 s. The molecule also displayed a logP in data set [2] of 4.78. Also, in the data set on Mus musculus [3], the Activity result was “Non-toxic”. Also, the MED with Mus musculus [4] was found to be 100 mg/kg. Moreover, the outcome in the data set with Mus musculus [5] and with Mus musculus [7] was inactive. Also, the minimal effective dose in the data set with Mus musculus [12] and in the data set on Mus musculus [8] was 100 mg/kg throughout.
For `O=C(CN(c1ccccc1)c1ccccc1)Nc1nc2ccc(Cl)cc2s1`, in the data set on Mus musculus [1], the Time is listed as 196 s. The molecule also had a logP in [2] of 6.12. Besides, the Activity entry with Mus musculus [13] is reported as “Non-toxic”. In addition, in the data set on Mus musculus [9], the MED worked out at 300 mg/kg. Also, the outcome in the data set with Mus musculus [5], with Mus musculus [6] and in the data set with Mus musculus [7] was inactive. For the same molecule, the minimal effective dose in the data set on Mus musculus [8] was 300 mg/kg.
As for `O=[N+]([O-])c1ccc(/C=N/NC(=S)Nc2nc3ccc(Cl)cc3s2)cc1`, in the data set on Mus musculus [1], the Time worked out at 157 s. Also, the logP in data set [2] amounted to 4.68. The MED with Mus musculus [4] and in the data set with Mus musculus [9] was 300 mg/kg in each case. Moreover, the minimal effective dose in the data set on Mus musculus [10] was 300 mg/kg; with Mus musculus [12], 300 mg/kg; with Mus musculus [8], 100 mg/kg. Further, the outcome in the data set on Mus musculus [7] was inactive.
In the case of `S=C(N/N=C/c1ccccc1)Nc1nc2ccc(Cl)cc2s1`, the Time in the data set on Mus musculus [1] came to 162 s. Besides, the logP in data set [2] came to 4.86. The MED with Mus musculus [4] and in the data set with Mus musculus [9] was 300 mg/kg throughout. The outcome in the data set with Mus musculus [5], in the data set on Mus musculus [6] and in the data set on Mus musculus [14] was inactive. Also, the minimal effective dose with Mus musculus [11] was 300 mg/kg.
Take `O=C(CN1CCOCC1)Nc1nc2ccc(Cl)cc2s1`: the Time in the data set with Mus musculus [1] was 140 s. Besides, the logP in data set [2] was found to be 2.32. In addition, the Activity entry with Mus musculus [13] and with Mus musculus [3] was “Non-toxic” throughout. Moreover, the minimal effective dose with Mus musculus [10] worked out at 100 mg/kg; in the data set with Mus musculus [12] it was 100 mg/kg; in the data set with Mus musculus [11], 30 mg/kg; in the data set with Mus musculus [8] it was 30 mg/kg.
As for `NC(=O)N1c2ccccc2C=Cc2ccccc21` [CARBAMAZEPINE], in the data set on Mus musculus [1], the Time is given as 179 s. Besides, the MED in the data set on Mus musculus [4] came out at 300 mg/kg; in the data set on Mus musculus [9], 100 mg/kg. Also, the minimal effective dose with Mus musculus [10] was 100 mg/kg; in the data set with Mus musculus [12], 100 mg/kg; in the data set on Mus musculus [11] it was 100 mg/kg; in the data set with Mus musculus [8] it was 30 mg/kg.
With `COc1ccc(/C=N/NC(=S)Nc2nc3ccc(Cl)cc3s2)cc1`, in the data set with Mus musculus [1], the Time is on record as 181 s. In [2], this molecule showed a logP of 5.16. Moreover, the MED in the data set with Mus musculus [4] was determined as 300 mg/kg; in the data set on Mus musculus [9] it was 100 mg/kg. Further, the result in the data set with Mus musculus [5], with Mus musculus [6] and in the data set on Mus musculus [14] was inactive. Further, the minimal effective dose in the data set with Mus musculus [11] turned out to be 300 mg/kg.
Regarding `O=C(CNc1ccc(F)cc1)Nc1nc2ccc(Cl)cc2s1`, the Time in the data set with Mus musculus [1] is listed as 169 s. This molecule returned a logP in [2] of 3.88. Besides, the Activity result in the data set with Mus musculus [13] and in the data set with Mus musculus [3] was “Non-toxic” in each case. Further, the minimal effective dose in the data set on Mus musculus [10] stood at 300 mg/kg; with Mus musculus [12] it was 100 mg/kg; in the data set with Mus musculus [11], 100 mg/kg; in the data set with Mus musculus [8], 100 mg/kg.
Regarding `CN(C)c1ccc(/C=N/NC(=S)Nc2nc3ccc(Cl)cc3s2)cc1`, in the data set with Mus musculus [1], the Time is 172 s. The molecule further gave a logP in data set [2] of 5.24. The MED in the data set on Mus musculus [4] and in the data set with Mus musculus [9] was 100 mg/kg throughout. The outcome in the data set with Mus musculus [5], in the data set on Mus musculus [6], in the data set on Mus musculus [7] and in the data set on Mus musculus [14] was inactive.
Turning to `S=C(N/N=C/c1ccc(Cl)cc1)Nc1nc2ccc(Cl)cc2s1`, the Time with Mus musculus [1] is reported as 191 s. The logP in data set [2] is 5.52. Also, the Activity result with Mus musculus [13] was “Non-toxic”. Further, the MED with Mus musculus [9] was 300 mg/kg. The result with Mus musculus [5], in the data set on Mus musculus [6] and with Mus musculus [7] was inactive. Moreover, the minimal effective dose in the data set on Mus musculus [8] is 300 mg/kg.
As to `O=C(CN1CCCCC1)Nc1nc2ccc(Cl)cc2s1`, in the data set with Mus musculus [1], the Time was found to be 145 s. For the same molecule, the logP in data set [2] amounted to 3.16. Besides, the Activity result in the data set with Mus musculus [3] is given as “Non-toxic”. Also, the MED with Mus musculus [4] was 300 mg/kg. Moreover, the outcome in the data set with Mus musculus [5] was inactive. Further, the minimal effective dose in the data set on Mus musculus [12] amounted to 100 mg/kg; with Mus musculus [11] it was 100 mg/kg; with Mus musculus [8] it was 30 mg/kg.
Regarding `CC(C)(C)NCC(=O)Nc1nc2ccc(Cl)cc2s1`, the Time with Mus musculus [1] was 129 s. Further, the lipophilicity (logP) in data set [2] was 3.02. In addition, the Activity result in the data set on Mus musculus [3] was “Non-toxic”. In addition, the MED in the data set on Mus musculus [4] stood at 300 mg/kg. Moreover, the minimal effective dose in the data set with Mus musculus [10] came out at 300 mg/kg; with Mus musculus [12], 100 mg/kg; with Mus musculus [11], 100 mg/kg; in the data set with Mus musculus [8] it was 30 mg/kg.
With `Fc1ccc(/C=N/NC(=S)Nc2nc3ccc(Cl)cc3s2)cc1`, in the data set on Mus musculus [1], the Time is recorded as 188 s. The logP in data set [2] stood at 5.22. In addition, the MED in the data set on Mus musculus [4] and in the data set with Mus musculus [9] was 100 mg/kg in each case. Further, the minimal effective dose in the data set on Mus musculus [10] came out at 100 mg/kg; with Mus musculus [12], 100 mg/kg; with Mus musculus [11], 30 mg/kg; in the data set with Mus musculus [8], 30 mg/kg.
For `O=C(Cn1ccnc1)Nc1nc2ccc(Cl)cc2s1`, the Time in the data set with Mus musculus [1] amounted to 137 s. Besides, in data set [2], the logP came to 2.14. For the same molecule, the Activity entry in the data set with Mus musculus [13] and with Mus musculus [3] was “Non-toxic” in each case. The minimal effective dose in the data set with Mus musculus [10] amounted to 100 mg/kg; with Mus musculus [12], 100 mg/kg; in the data set on Mus musculus [11] it was 30 mg/kg; in the data set on Mus musculus [8], 30 mg/kg.
For the molecule `O=C(CNc1ccc(Cl)cc1)Nc1nc2ccc(Cl)cc2s1`, in the data set on Mus musculus [1], the Time came to 161 s. For the same molecule, the logP in [2] turned out to be 4.24. For the same molecule, the Activity result in the data set on Mus musculus [3] is listed as “Non-toxic”. Moreover, the MED in the data set on Mus musculus [4] is 100 mg/kg. For the same molecule, the outcome in the data set with Mus musculus [5], in the data set on Mus musculus [6] and in the data set on Mus musculus [7] was inactive. Further, the minimal effective dose with Mus musculus [8] amounted to 100 mg/kg.

Usually logP stands for a log measure of how a compound divides between an organic and an aqueous phase.
